8 compounds from PMC5539068, “Structural optimization and evaluation of novel 2-pyrrolidone-fused (2-oxoindolin-3-ylidene)methylpyrrole derivatives as potential VEGFR-2/PDGFRβ inhibitors” (Chemistry Central Journal, 2017) can be followed below.

The IC50 is the concentration at which inhibition is half-maximal. As a reminder, the inhibition is the drop in the measured response relative to a control, in per cent. As a reminder, the melting point is the temperature of the solid-liquid transition.

In one series the test system is Detroit 551 cells. As to the kind of experiment: Cell proliferation assay (MTT), normal fibroblast Detroit 551. To be noted: Homo sapiens, Detroit 551, 72 h, read-out: IC50 Detroit 551.
The target in a further series is VEGFR-2 (Homo sapiens, UniProt P35968). The experiment in a line: In-vitro kinase assay (HotSpot, 33P), VEGFR-2. To be noted: for % inhibition of VEGFR-2 at 80 nM: 80 nM compound, ATP 10.0 μM; for inhibition at 0.08 µM: read-out: % inhibition of VEGFR-2 at 80 nM.
The test system of another series is HCT116 cells. The experiment in a line: Cell proliferation assay (MTT), HCT116. To be noted: for IC50: Homo sapiens, HCT-116, 72 h, read-out: IC50 HCT116; for selective index (SI) HCT116: versus Detroit 551.
The subject of a further series is 786-O cells. As to the kind of experiment: Cell proliferation assay (MTT), 786-O. As to conditions: for IC50: Homo sapiens, 786-0, 72 h, read-out: IC50 786-O.
The subject of a further series is NCI-H460 cells. The experiment in a line: Cell proliferation assay (MTT), NCI-H460. To be noted: for IC50: Homo sapiens, NCI-H460, 72 h, read-out: IC50 NCI-H460; for selective index (SI) NCI-H460: versus Detroit 551.

The structures appear in SMILES notation. “Also recorded” adds a separate entry of the source.

Chain of VEGFR-2 (P35968 20-1356): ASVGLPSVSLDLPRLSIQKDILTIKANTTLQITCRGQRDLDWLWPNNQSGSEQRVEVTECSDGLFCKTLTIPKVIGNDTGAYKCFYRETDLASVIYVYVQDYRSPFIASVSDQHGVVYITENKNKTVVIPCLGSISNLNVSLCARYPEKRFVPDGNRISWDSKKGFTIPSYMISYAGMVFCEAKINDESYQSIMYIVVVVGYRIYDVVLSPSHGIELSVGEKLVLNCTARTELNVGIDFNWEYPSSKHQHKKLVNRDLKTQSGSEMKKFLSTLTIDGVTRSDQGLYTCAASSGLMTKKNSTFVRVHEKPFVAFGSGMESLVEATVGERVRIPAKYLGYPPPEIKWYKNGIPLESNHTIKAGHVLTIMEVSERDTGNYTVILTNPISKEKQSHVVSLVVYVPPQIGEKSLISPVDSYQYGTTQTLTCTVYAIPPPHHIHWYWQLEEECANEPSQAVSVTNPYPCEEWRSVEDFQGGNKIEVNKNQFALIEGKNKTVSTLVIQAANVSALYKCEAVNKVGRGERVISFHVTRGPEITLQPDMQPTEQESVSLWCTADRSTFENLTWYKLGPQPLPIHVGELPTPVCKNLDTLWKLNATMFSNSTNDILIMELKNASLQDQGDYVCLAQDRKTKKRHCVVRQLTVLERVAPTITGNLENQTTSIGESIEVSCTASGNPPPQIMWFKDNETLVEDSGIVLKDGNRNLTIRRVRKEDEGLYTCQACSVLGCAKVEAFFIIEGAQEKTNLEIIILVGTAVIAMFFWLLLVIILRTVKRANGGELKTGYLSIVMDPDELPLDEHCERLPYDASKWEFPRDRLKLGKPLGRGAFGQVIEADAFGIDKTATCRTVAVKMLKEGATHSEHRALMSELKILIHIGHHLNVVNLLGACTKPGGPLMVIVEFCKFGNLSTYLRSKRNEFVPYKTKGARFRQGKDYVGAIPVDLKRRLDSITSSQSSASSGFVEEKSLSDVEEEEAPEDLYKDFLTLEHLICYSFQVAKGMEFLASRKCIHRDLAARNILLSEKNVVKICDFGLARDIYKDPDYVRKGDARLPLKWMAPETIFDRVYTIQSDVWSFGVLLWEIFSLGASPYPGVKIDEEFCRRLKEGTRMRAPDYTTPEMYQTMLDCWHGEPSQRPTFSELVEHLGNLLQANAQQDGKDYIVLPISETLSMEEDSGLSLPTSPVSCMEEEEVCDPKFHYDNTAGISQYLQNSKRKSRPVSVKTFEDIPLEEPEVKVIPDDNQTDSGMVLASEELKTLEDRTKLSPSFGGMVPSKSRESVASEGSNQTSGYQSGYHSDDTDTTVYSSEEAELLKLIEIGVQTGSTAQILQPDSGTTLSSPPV
Procedure for 786-O cells: (§1) Serial dilutions of indicated compounds were added and incubated for additional 72 h. At the end of the incubation, cell viability was determined by the 3-(4,5-dimethylthiazol-2-yl)-2,5-diphenyl tetrazolium bromide (MTT) assay. The MTT formazan crystals formed were dissolved in DMSO, and the absorbance at 570 nm was recorded using a microplate spectrophotometer (Thermo Fisher Scientific, Waltham, MA, USA) [46].
Procedure for Detroit 551 cells: as §1
Procedure for HCT116 cells: as §1
Procedure for NCI-H460 cells: as §1
Procedure for VEGFR-2: Next, the VEGFR-2 phosphorylation inhibitory activities of the newly synthesized compounds were evaluated.
Briefly, specific kinase and substrate and required cofactors were prepared in reaction buffer. Test compounds were added to the reaction and after 20 min a mixture of ATP (Sigma, St. Louis MO, USA) and ^33P ATP (Perkin Elmer, Waltham MA, USA) was added to make a final concentration of 10.0 μM. Reactions were stood at room temperature for 120 min, and then the reactions were spotted onto a P81 ion exchange filter paper (Whatman Inc., Piscataway, NJ, USA). Unbound phosphate was removed by extensive washing of filters in 0.1% phosphoric acid. Kinase activity data was reported as the percent remaining kinase activity in test compounds compared to the solvent control dimethyl sulfoxide (DMSO).

The compound `CCN(CC)CCN1Cc2[nH]c(/C=C3\C(=O)Nc4ccc(S(N)(=O)=O)cc43)c(C)c2C1=O` [Compound 4, (Z)-3-((5-(2-(diethylamino)ethyl)-3-methyl-4-oxo-1,4,5,6-tetrahydropyrrolo[3,4-b]pyrrol-2-yl)methylene)-2-oxoindoline-5-sulfonamide] had a melting point of 252 to 255 °C. Also, the IC50 in the series on Detroit 551 cells is more than 10 µM. In addition, at VEGFR-2, the “% inhibition of VEGFR-2 at 80 nM” value is given as “did not differ from that of the 1% DMSO (control)” and the inhibition at 0.08 µM was found to be 0%. Further, the IC50 in the series with HCT116 cells is more than 10 µM. In addition, the IC50 with 786-O cells was more than 10 µM. Besides, the IC50 in the series on NCI-H460 cells was more than 10 µM.

The compound `CCN(CC)CCN1Cc2[nH]c(/C=C3\C(=O)Nc4ccc(S(=O)(=O)N(C)C)cc43)c(C)c2C1=O` [Compound 5, (Z)-3-((5-(2-(diethylamino)ethyl)-3-methyl-4-oxo-1,4,5,6-tetrahydropyrrolo[3,4-b]pyrrol-2-yl)methylene)-N,N-dimethyl-2-oxoindoline-5-sulfonamide] showed a melting point of 244 to 247 °C. Moreover, the IC50 in the series on Detroit 551 cells was more than 10 µM. Further, the inhibition at 0.08 µM at VEGFR-2 is 20%. Moreover, in the series with HCT116 cells, the IC50 was 8.98 ± 0.92 µM and the “selective index (SI) HCT116” value is listed as more than 1.11. The IC50 with 786-O cells is more than 10 µM. In addition, in the series with NCI-H460 cells, the half-maximal inhibitory concentration (IC50) was more than 10 µM.

Consider `CCN(CC)CCN1Cc2[nH]c(/C=C3\C(=O)Nc4ccc(S(=O)(=O)N(CC)CC)cc43)c(C)c2C1=O` [Compound 6, (Z)-3-((5-(2-(diethylamino)ethyl)-3-methyl-4-oxo-1,4,5,6-tetrahydropyrrolo[3,4-b]pyrrol-2-yl)methylene)-N,N-diethyl-2-oxoindoline-5-sulfonamide], for which the melting point was 245 to 247 °C. Also, the IC50 in the series on Detroit 551 cells is more than 10 µM. The inhibition at 0.08 µM at VEGFR-2 is 0%. In the series with HCT116 cells, the IC50 turned out to be 4.2 ± 0.57 µM and the “selective index (SI) HCT116” value was more than 2.38. In addition, the IC50 in the series on 786-O cells was more than 10 µM. Moreover, the half-maximal inhibitory concentration (IC50) in the series on NCI-H460 cells was more than 10 µM.

In the case of `CCN(CC)CCN1Cc2[nH]c(/C=C3\C(=O)Nc4ccc(S(=O)(=O)Nc5ccccc5)cc43)c(C)c2C1=O` [Compound 8, (Z)-3-((5-(2-(Diethylamino)ethyl)-3-methyl-4-oxo-1,4,5,6-tetrahydropyrrolo[3,4-b]pyrrol-2-yl)methylene)-2-oxo-N-phenylindoline-5-sulfonamide], the melting point lay in the range of 225 to 228 °C. Also, in the series with Detroit 551 cells, the IC50 is more than 10 µM. In addition, at VEGFR-2, the “% inhibition of VEGFR-2 at 80 nM” value is “did not differ from that of the 1% DMSO (control)” and the inhibition at 0.08 µM turned out to be 15%. In addition, in the series with HCT116 cells, the IC50 was more than 10 µM. Besides, in the series with 786-O cells, the IC50 was more than 10 µM. Besides, the half-maximal inhibitory concentration (IC50) in the series on NCI-H460 cells is more than 10 µM.

The compound `CCN(CC)CCN1Cc2[nH]c(/C=C3\C(=O)Nc4ccc(S(=O)(=O)Nc5ccc(C(F)(F)F)cc5)cc43)c(C)c2C1=O` [Compound 9, (Z)-3-((5-(2-(Diethylamino)ethyl)-3-methyl-4-oxo-1,4,5,6-tetrahydropyrrolo[3,4-b]pyrrol-2-yl)methylene)-2-oxo-N-(4-(trifluoromethyl)phenyl)indoline-5-sulfonamide] returned a melting point of 231 to 234 °C. Further, the 50% inhibitory concentration (IC50) with Detroit 551 cells was more than 10 µM. For the same compound, on VEGFR-2, the “% inhibition of VEGFR-2 at 80 nM” value is “did not differ from that of the 1% DMSO (control)” and the inhibition at 0.08 µM is 0%. Further, the IC50 with HCT116 cells was more than 10 µM. Besides, the half-inhibitory concentration (IC50) in the series with 786-O cells was more than 10 µM. The IC50 with NCI-H460 cells is more than 10 µM.

Regarding `CCN(CC)CCN1Cc2[nH]c(/C=C3\C(=O)Nc4ccc(NS(C)(=O)=O)cc43)c(C)c2C1=O` [Compound 10, (Z)-N-(3-((5-(2-(Diethylamino)ethyl)-3-methyl-4-oxo-1,4,5,6-tetrahydropyrrolo[3,4-b]pyrrol-2-yl)methylene)-2-oxoindolin-5-yl)methanesulfonamide], the melting point was 245 to 247 °C. In addition, the IC50 in the series on Detroit 551 cells was more than 10 µM. Also, the inhibition at 0.08 µM on VEGFR-2 is 4%. For the same compound, the IC50 in the series with HCT116 cells was more than 10 µM. In the series on 786-O cells, the IC50 is more than 10 µM. In addition, the IC50 in the series with NCI-H460 cells is more than 10 µM.

`CCN(CC)CCN1Cc2[nH]c(/C=C3\C(=O)Nc4ccc(C(F)(F)F)cc43)c(C)c2C1=O` [Compound 11, (Z)-3-((5-(2-(Diethylamino)ethyl)-3-methyl-4-oxo-1,4,5,6-tetrahydropyrrolo[3,4-b]pyrrol-2-yl)methylene)-5-(trifluoromethyl)indolin-2-one] returned a melting point of 212 to 215 °C. Moreover, the IC50 in the series with Detroit 551 cells is more than 10 µM. At VEGFR-2, the “% inhibition of VEGFR-2 at 80 nM” value is on record as “did not differ from that of the 1% DMSO (control); also recorded: no inhibitory activity” and the inhibition at 0.08 µM was determined as 0%. In addition, the half-maximal inhibitory concentration (IC50) in the series with HCT116 cells was more than 10 µM. Further, the IC50 in the series on 786-O cells was found to be 8.49 ± 0.46 µM. The “selective index (SI) 786-O” value in the series with 786-O cells (versus Detroit 551) is on record as more than 1.18. In the series on NCI-H460 cells, the IC50 stood at 7.22 ± 1.01 µM and the “selective index (SI) NCI-H460” value is more than 1.39.

Regarding `CCN(CC)CCN1Cc2[nH]c(/C=C3\C(=O)Nc4ccc([N+](=O)[O-])cc43)c(C)c2C1=O` [Compound 12, (Z)-3-((5-(2-(diethylamino)ethyl)-3-methyl-4-oxo-1,4,5,6-tetrahydropyrrolo[3,4-b]pyrrol-2-yl)methylene)-5-nitroindolin-2-one], the melting point was 229 to 230 °C. Further, the IC50 with Detroit 551 cells is more than 10 µM. In addition, the inhibition at 0.08 µM on VEGFR-2 came to 13%. Also, the IC50 in the series on HCT116 cells was more than 10 µM. Also, in the series with 786-O cells, the IC50 is more than 10 µM. In the series with NCI-H460 cells, the IC50 worked out at 6.61 ± 0.8 µM and the “selective index (SI) NCI-H460” value is on record as more than 1.51.
